Laboratory results as given in article PMC8983078 (Drug Discovery Today, 2022).
Counter-ions that a name gives are not always drawn. Like-named read-outs stand apart in the source and are kept apart here.

What was measured:
[1] = target: T1, hERG channel (Homo sapiens, UniProt Q12809); conditions: cited from earlier work
[2] = cited from earlier work
[3] = target: T1, hERG channel
[4] = test system: SARS-CoV-2; conditions: cited from earlier work; for SARS-CoV-2 CPE EC50: Vero E6 cells infected for 72 h, NPC qHTS in-house database
[5] = test system: autophagy; conditions: in words; screening data; cited from earlier work
[6] = test system: phospholipidosis (PLD); conditions: read-out: PLD EC50; NPC qHTS in-house database; cited from earlier work
[7] = test system: Middle East respiratory syndrome (MERS)-CoV; conditions: cited from earlier work
[8] = test system: SARS-CoV-1; conditions: cited from earlier work
[9] = test system: COVID-19; conditions: patients hospitalized with COVID-19, observational; cited from earlier work
[10] = tier stated per drug in the text, based on hERG curve rank

T1 sequence (Q12809 whole entry): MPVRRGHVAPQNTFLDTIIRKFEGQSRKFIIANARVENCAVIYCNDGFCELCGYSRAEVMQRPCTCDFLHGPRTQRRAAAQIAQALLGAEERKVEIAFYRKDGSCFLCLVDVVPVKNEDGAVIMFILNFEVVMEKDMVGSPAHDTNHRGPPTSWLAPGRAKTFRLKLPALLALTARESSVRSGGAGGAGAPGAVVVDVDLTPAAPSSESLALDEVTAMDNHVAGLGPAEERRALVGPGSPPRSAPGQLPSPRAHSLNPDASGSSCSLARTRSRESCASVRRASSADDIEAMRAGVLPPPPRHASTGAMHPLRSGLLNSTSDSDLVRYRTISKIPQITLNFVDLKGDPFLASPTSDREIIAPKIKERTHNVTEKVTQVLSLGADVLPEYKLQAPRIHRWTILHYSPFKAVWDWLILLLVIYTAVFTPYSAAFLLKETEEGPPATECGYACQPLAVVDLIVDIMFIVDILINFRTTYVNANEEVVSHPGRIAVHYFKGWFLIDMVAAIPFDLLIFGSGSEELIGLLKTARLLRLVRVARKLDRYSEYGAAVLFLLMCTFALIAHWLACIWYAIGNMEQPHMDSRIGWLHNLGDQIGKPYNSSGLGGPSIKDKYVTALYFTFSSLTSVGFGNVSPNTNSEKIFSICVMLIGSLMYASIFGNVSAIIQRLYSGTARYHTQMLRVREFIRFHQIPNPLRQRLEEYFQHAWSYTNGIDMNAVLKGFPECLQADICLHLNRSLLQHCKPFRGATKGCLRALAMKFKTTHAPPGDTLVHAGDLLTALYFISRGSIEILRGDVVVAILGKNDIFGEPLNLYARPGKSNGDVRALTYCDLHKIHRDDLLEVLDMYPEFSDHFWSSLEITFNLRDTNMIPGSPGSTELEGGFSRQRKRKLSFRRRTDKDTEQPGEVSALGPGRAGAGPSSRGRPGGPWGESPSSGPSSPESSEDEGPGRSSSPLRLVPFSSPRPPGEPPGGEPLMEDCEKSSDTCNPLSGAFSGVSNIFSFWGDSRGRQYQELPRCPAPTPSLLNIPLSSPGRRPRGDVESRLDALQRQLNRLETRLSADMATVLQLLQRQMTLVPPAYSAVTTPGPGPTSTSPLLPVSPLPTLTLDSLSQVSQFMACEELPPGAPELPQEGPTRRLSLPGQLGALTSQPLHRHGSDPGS

Structure (SMILES): CC[C@H]1OC(=O)[C@H](C)[C@@H](O[C@H]2C[C@@](C)(OC)[C@@H](O)[C@H](C)O2)[C@H](C)[C@@H](O[C@@H]2O[C@H](C)C[C@H](N(C)C)[C@H]2O)[C@](C)(O)C[C@@H](C)CN(C)[C@H](C)[C@@H](O)[C@]1(C)O [Azithromycin]
- hERG IC50 ([1]; NPC qHTS in-house database): Inactive
- hERG inhibition ([1]; in words, screening data): no hERG inhibition

Structure (SMILES): CN1CCCCC1CCN1c2ccccc2Sc2ccc([S+](C)[O-])cc21 (stereo not drawn) [mesoridazine]
- TdP risks ([2]; in vivo): known TdP risks
- hERG liability [3]: high (key: low (curve rank < 1.0); medium (curve rank between 1.0 and 4.0); high (curve rank > 4.0))

Structure (SMILES): O=C(CCCN1CCC(O)(c2ccc(Cl)cc2)CC1)c1ccc(F)cc1 [haloperidol]
- hERG liability [3]: high (key: low (curve rank < 1.0); medium (curve rank between 1.0 and 4.0); high (curve rank > 4.0))

Structure (SMILES): CC(=O)Oc1ccccc1C(=O)Nc1ncc([N+](=O)[O-])s1 [Nitazoxanide]
- activity in the CPE assay ([4]; in words, screening data): moderate activity
- activity in the autophagy assay [5]: no activity
- hERG IC50 ([1]; NPC qHTS in-house database): Inactive

Structure (SMILES): COc1ccc(CCN2CCC(Nc3nc4ccccc4n3Cc3ccc(F)cc3)CC2)cc1 [Astemizole]
- TdP risks [2]: known TdP risks
- arrhythmias ([2]; in vivo): fatal arrythmias

Structure (SMILES): CN(C)CCCN1c2ccccc2Sc2ccc(Cl)cc21 [Chlorpromazine]
- EC50 [6]: 10 µM
- viral replication of MERS-CoV [7]: inhibit in vitro viral replication
- TdP risks ([2]; in vivo): known TdP risks
- viral replication of SARS-CoV-1 [8]: inhibit in vitro viral replication
- hERG liability [3, 10]: high (high (curve rank > 4.0))

Structure (SMILES): CC[C@@H](C)[C@H]1O[C@]2(CC[C@@H]1C)C[C@@H]1C[C@@H](C/C=C(\C)[C@@H](O[C@H]3C[C@H](OC)[C@@H](O[C@H]4C[C@H](OC)[C@@H](O)[C@H](C)O4)[C@H](C)O3)[C@@H](C)/C=C/C=C3\CO[C@@H]4[C@H](O)C(C)=C[C@@H](C(=O)O1)[C@]34O)O2 [Ivermectin]
- EC50 [6]: 17 µM
- IC50 ([1]; read-out: hERG IC50, NPC qHTS in-house database): 9.7 µM
- hERG liability [3, 10]: moderate

Structure (SMILES): CCN(CC)CCCC(C)Nc1ccnc2cc(Cl)ccc12 (stereo not drawn) [Chloroquine]
- EC50 [6]: 11 µM

Structure (SMILES): O=C(Nc1ccc([N+](=O)[O-])cc1Cl)c1cc(Cl)ccc1O [Niclosamide]
- activity in the autophagy assay [5]: moderate activity
- EC50 [6]: 1 µM
- hERG IC50 ([1]; NPC qHTS in-house database): Inactive

Structure (SMILES): NC(N)=Nc1nc(CSCCC(N)=NS(N)(=O)=O)cs1 [Famotidine]
- SARS-CoV-2 CPE EC50 [4]: Inactive
- clinical outcomes [9]: improved clinical outcomes

Structure (SMILES): NC(=O)c1nc(F)c[nH]c1=O [Favipiravir]
- SARS-CoV-2 CPE EC50 [4]: Inactive

Structure (SMILES): CCN(CCO)CCCC(C)Nc1ccnc2cc(Cl)ccc12 (stereo not drawn) [Hydroxychloroquine sulfate]
- SARS-CoV-2 CPE EC50 [4]: Inactive
- hERG IC50 ([1]; NPC qHTS in-house database): Inactive
